Assay results taken from patent US11560370B1, “5-membered heteroaryl carboxamide compounds for treatment of HBV” (Assembly Biosciences, Inc., priority 2018, dated 2023).

Test system: HBV
Assay: Viral production from HepAD38 cells, viral load by qPCR of HBV core sequence
Assay type: cell-based
Details: 5 days, supernatant HBV DNA by qPCR, read-out: Viral Load EC50 Activity range
Outline: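 HepAD38 cells in tetracycline-free medium with 2% FBS, 50,000 cells/well, treated 5 days at 37° C. with compound from 10 μM top concentration (1% DMSO final). Supernatant HBV DNA measured by TaqMan qPCR of core sequence against standards, versus DMSO wells; viability by CellTiter-Glo; EC50/CC50 by four-parameter fit.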

SMILES | EC50 [nM]
CC(=O)NC1CC2CC(c3nn(C)c(N)c3C(=O)Nc3ccc(F)c(Cl)c3)CC2C1 (centres unmarked) [AIA-288] | < 100
Cn1cc(C2CC3CC(c4nn(C)c(N)c4C(=O)Nc4ccc(F)c(Cl)c4)CC3C2)cn1 (centres unmarked) [AIA-049] | < 100
Cn1cc(C2CCC(c3nn(C)c(N)c3C(=O)Nc3ccc(F)c(Cl)c3)C2)cn1 (single isomer, unassigned) [AIA-004-C, 5-Amino-N-(3-chloro-4-fluorophenyl)-1-methyl-3-(3-(1-methyl-1H-pyrazol-4-yl)cyclopentyl)-1H-pyrazole-4-carboxamide] | 100 to 500
Cn1nc(C2CC3CC(O)(C(C)(C)O)CC3C2)c(C(=O)Nc2ccc(F)c(Cl)c2)c1N (centres unmarked) [AIA-257] | < 100
Cn1nc(C2CC3C[S+]([O-])CC3C2)c(C(=O)Nc2ccc(F)c(Cl)c2)c1N (single isomer, unassigned) [AIA-056-B, 5-Amino-N-(3-chloro-4-fluorophenyl)-1-methyl-3-(2-oxidohexahydro-1H-cyclopenta[c]thiophen-5-yl)-1H-pyrazole-4-carboxamide] | 500 to 10000
CN(C1CC2CC(c3nn(C)c(N)c3C(=O)Nc3ccc(F)c(Cl)c3)CC2C1)S(C)(=O)=O (centres unmarked) [AIA-043] | < 100

Same assay, conditions: Hepatitis B virus, HePAD38, 120 h, 5 days, supernatant HBV DNA by qPCR, read-out: Viral Load EC50 Activity range

SMILES | EC50 [nM]
COc1ccc([C@@H]2CC[C@@H](c3nn(C)c(N)c3C(=O)Nc3ccc(F)c(Cl)c3)C2)cc1 [AIA-003-D, 5-amino-N-(3-chloro-4-fluorophenyl)-3-((1R,3R)-3-(4-methoxyphenyl)cyclopentyl)-1-methyl-1H-pyrazole-4-carboxamide] | < 100
Cn1nc(C2CC3CC(O)(CSCC(F)(F)F)CC3C2)c(C(=O)Nc2ccc(F)c(Cl)c2)c1N (centres unmarked) [AIA-258-1, 5-Amino-N-(3-chloro-4-fluorophenyl)-3-(5-hydroxy-5-(((2,2,2-trifluoroethyl)thio)methyl)octahydropentalen-2-yl)-1-methyl-1H-pyrazole-4-carboxamide] | < 100
Cn1cc(C2CCC(c3nn(C)c(N)c3C(=O)Nc3ccc(F)c(Cl)c3)C2)cn1 (single isomer, unassigned) [AIA-004-B, 5-Amino-N-(3-chloro-4-fluorophenyl)-1-methyl-3-(3-(1-methyl-1H-pyrazol-4-yl)cyclopentyl)-1H-pyrazole-4-carboxamide] | 100 to 500
Cn1nc(C2CCC(c3ccccc3)C2)c(C(=O)Nc2ccc(F)c(C#N)c2)c1N (centres unmarked) [AIA-279, 5-Amino-N-(3-cyano-4-fluorophenyl)-1-methyl-3-(3-phenylcyclopentyl)-1H-pyrazole-4-carboxamide] | < 100
COc1cc(-c2nccn2C)ccc1C1CCC(c2nn(C)c(N)c2C(=O)Nc2ccc(F)c(Cl)c2)C1 (single isomer, unassigned) [AIA-367-1, 5-Amino-N-(3-chloro-4-fluorophenyl)-3-(3-(2-methoxy-4-(1-methyl-1H-imidazol-2-yl)phenyl)cyclopentyl)-1-methyl-1H-pyrazole-4-carboxamide] | 100 to 500
Cn1nc(C2CC3CC(O)(CS(=O)(=O)CCCN4CCCCC4)CC3C2)c(C(=O)Nc2ccc(F)c(Cl)c2)c1N (single isomer, unassigned) [AIA-349-b, 5-Amino-N-(3-chloro-4-fluorophenyl)-3-(5-hydroxy-5-(((3-(piperidin-1-yl)propyl)sulfonyl)methyl)octahydropentalen-2-yl)-1-methyl-1H-pyrazole-4-carboxamide] | 100 to 500
CNC(=O)C1CC2CC(c3nn(C)c(N)c3C(=O)Nc3ccc(F)c(Cl)c3)CC2C1 (centres unmarked) [AIA-016, 5-Amino-N-(3-chloro-4-fluorophenyl)-1-methyl-3-(5-(methylcarbamoyl)octahydropentalen-2-yl)-1H-pyrazole-4-carboxamide] | < 100
COc1cccc(C2CCC(c3nn(C)c(N)c3C(=O)Nc3ccc(F)c(Cl)c3)C2)c1 (single isomer, unassigned) [AIA-276D, 5-Amino-N-(3-chloro-4-fluorophenyl)-3-(3-(3-methoxyphenyl)cyclopentyl)-1-methyl-1H-pyrazole-4-carboxamide] | < 100
CN(C)C(=O)CC1(O)CC2CC(c3nn(C)c(N)c3C(=O)Nc3ccc(F)c(Cl)c3)CC2C1 (centres unmarked) [AIA-270, 5-Amino-N-(3-chloro-4-fluorophenyl)-3-(5-(2-(dimethylamino)-2-oxoethyl)-5-hydroxyoctahydropentalen-2-yl)-1-methyl-1H-pyrazole-4-carboxamide] | < 100
Cn1nc(C2CC3CC(O)(CS(=O)(=O)C4CC4)CC3C2)c(C(=O)Nc2ccc(F)c(Cl)c2)c1N (single isomer, unassigned) [AIA-252-2, 5-Amino-N-(3-chloro-4-fluorophenyl)-3-(5-((cyclopropylsulfonyl)methyl)-5-hydroxyortahydropentalen-2-yl)-1-methyl-1H-pyrazole-4-carboxamide] | < 100
CCS(=O)(=O)C1CC2CC(c3nn(C)c(N)c3C(=O)Nc3ccc(F)c(Cl)c3)CC2C1 (centres unmarked) [AIA-031, 5-Amino-N-(3-chloro-4-fluorophenyl)-3-(5-(ethylsulfonyl)octahydropentalen-2-yl)-1-methyl-1H-pyrazole-4-carboxamide] | < 100
